Source: the supplement of paper PMC11061612

What was measured:
[1] = system: Becker (Low Grade Glioma); assay: Bliss excess, mean over the matrix (fraction); higher = more synergy
How it was run: (§1)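 Cell lines in DMEM/F12 or RPMI with 10% FBS were plated in 1536-well plates, held 24 hours at 37°C, 5% CO2, then given two-drug dose matrices for 72 hours (DMSO typically 0.2%). Viability was read by CellTiter-Glo 2.0 luminescence and scaled as inhibition from 0 (vehicle wells) to 1 (blank wells). Combination Emax is the second-highest inhibition in the matrix; Bliss excess is observed combination effect minus expected EA + EB − EA·EB, EA and EB being single-agent effects.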

CHL-1 (Melanoma) [2] = assay: as above
How it was run: as §1

[3] = system: CML-T1 (Chronic Myelogenous Leukemia); assay: as above
How it was run: as §1

[4] = system: COLO-684 (Endometrial Carcinoma); assay: as above
How it was run: as §1

[5] = system: EB-3 (Burkitt's Lymphoma); assay: as above
How it was run: as §1

[6] = system: FLO-1 (Esophageal Adenocarcinoma); assay: as above
How it was run: as §1

[7] = system: HCC-44 (Lung Adenocarcinoma); assay: as above
How it was run: as §1

KYM-1 (Rhabdomyosarcoma) [8] = assay: as above
How it was run: as §1

[9] = system: KYSE-70 (Esophageal Squamous Cell Carcinoma); assay: as above
How it was run: as §1

[10] = system: LAMA-84 (Chronic Myelogenous Leukemia); assay: as above
How it was run: as §1

[11] = system: LOUCY (T-Lymphoblastic Leukemia); assay: as above
How it was run: as §1

[12] = system: NCI-H1755 (Lung Adenocarcinoma); assay: as above
How it was run: as §1

[13] = system: NCI-H810 (Non-Small Cell Lung Carcinoma); assay: as above
How it was run: as §1

[14] = system: NKM-1 (Acute Myeloid Leukemia); assay: as above
How it was run: as §1

[15] = system: OV-90 (Ovarian Carcinoma); assay: as above
How it was run: as §1

[16] = system: PANC-02-03 (Pancreatic Carcinoma); assay: as above
How it was run: as §1

[17] = system: PC-14 (Lung Adenocarcinoma); assay: as above
How it was run: as §1

[18] = system: RMG-I (Ovarian Carcinoma); assay: as above
How it was run: as §1

[19] = system: SK-MM-2 (Plasma Cell Myeloma); assay: as above
How it was run: as §1

[20] = system: SW684 (Other Solid Carcinomas); assay: as above
How it was run: as §1

[21] = system: Becker (Low Grade Glioma); assay: combination Emax (second highest fraction inhibited in the dose matrix, 72 h); higher = more inhibition; extreme values may be limits of the assay
How it was run: as §1

CHL-1 (Melanoma) [22] = assay: as above
How it was run: as §1

[23] = system: CML-T1 (Chronic Myelogenous Leukemia); assay: as above
How it was run: as §1

[24] = system: COLO-684 (Endometrial Carcinoma); assay: as above
How it was run: as §1

[25] = system: EB-3 (Burkitt's Lymphoma); assay: as above
How it was run: as §1

[26] = system: FLO-1 (Esophageal Adenocarcinoma); assay: as above
How it was run: as §1

[27] = system: HCC-44 (Lung Adenocarcinoma); assay: as above
How it was run: as §1

KYM-1 (Rhabdomyosarcoma) [28] = assay: as above
How it was run: as §1

[29] = system: KYSE-70 (Esophageal Squamous Cell Carcinoma); assay: as above
How it was run: as §1

[30] = system: LAMA-84 (Chronic Myelogenous Leukemia); assay: as above
How it was run: as §1

[31] = system: LOUCY (T-Lymphoblastic Leukemia); assay: as above
How it was run: as §1

[32] = system: NCI-H1755 (Lung Adenocarcinoma); assay: as above
How it was run: as §1

[33] = system: NCI-H810 (Non-Small Cell Lung Carcinoma); assay: as above
How it was run: as §1

[34] = system: NKM-1 (Acute Myeloid Leukemia); assay: as above
How it was run: as §1

[35] = system: OV-90 (Ovarian Carcinoma); assay: as above
How it was run: as §1

[36] = system: PANC-02-03 (Pancreatic Carcinoma); assay: as above
How it was run: as §1

[37] = system: PC-14 (Lung Adenocarcinoma); assay: as above
How it was run: as §1

[38] = system: RMG-I (Ovarian Carcinoma); assay: as above
How it was run: as §1

[39] = system: SK-MM-2 (Plasma Cell Myeloma); assay: as above
How it was run: as §1

[40] = system: SW684 (Other Solid Carcinomas); assay: as above
How it was run: as §1
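For Bliss excess, mean over the matrix in this document: after 72 h of two-drug dosing.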

Row | Structure (SMILES) | Bliss excess [1] | Bliss excess (CHL-1 (Melanoma) [2]) | Bliss excess [3] | Bliss excess [4] | Bliss excess [5] | Bliss excess [6] | Bliss excess [7] | Bliss excess (KYM-1 (Rhabdomyosarcoma) [8]) | Bliss excess [9] | Bliss excess [10] | Bliss excess [11] | Bliss excess [12] | Bliss excess [13] | Bliss excess [14] | Bliss excess [15] | Bliss excess [16] | Bliss excess [17] | Bliss excess [18] | Bliss excess [19] | Bliss excess [20] | combination Emax [21] | combination Emax (CHL-1 (Melanoma) [22]) | combination Emax [23] | combination Emax [24] | combination Emax [25] | combination Emax [26] | combination Emax [27] | combination Emax (KYM-1 (Rhabdomyosarcoma) [28]) | combination Emax [29] | combination Emax [30] | combination Emax [31] | combination Emax [32] | combination Emax [33] | combination Emax [34] | combination Emax [35] | combination Emax [36] | combination Emax [37] | combination Emax [38] | combination Emax [39] | combination Emax [40]
1 | O=C(c1cc(Cc2n[nH]c(=O)c3ccccc23)ccc1F)N1CCN(C(=O)C2CC2)CC1 [Olaparib] + COc1nnc2ccc(N3CCC(c4ccc(OCCN5CCN(C)C(=O)[C@H]5C)cc4)CC3)nn12 [AZD5153] (first compound max 10 µM, 7x7, partner max 1 µM) | -0.0004 | -0.0554 | -0.0113 | -0.0132 | -0.0549 | -0.0174 | -0.0341 | -0.0479 | -0.0305 | -0.0335 | 0.0304 | -0.0453 | -0.0406 | -0.0231 | -0.0144 | -0.0683 | -0.0284 | -0.0288 | -0.032 | -0.0857 | 0.397 | 0.418 | 0.852 | 0.564 | 0.694 | 0.575 | 0.593 | 0.862 | 0.389 | 0.8 | 0.749 | 0.498 | 0.671 | 0.898 | 0.402 | 0.591 | 0.431 | 0.536 | 0.875 | 0.415
2 | Cc1c2c(nn1C)CSCc1cc(n(C)n1)CSc1cc(c3ccccc3c1)OCCCc1c(C(=O)O)n(C)c3c-2c(Cl)ccc13 [AZD5991] + Nc1ccn([C@@H]2O[C@H](CO)[C@@H](O)C2(F)F)c(=O)n1 [Gemcitabine] (first compound max 1 µM, 7x7, partner max 0.3 µM) | -0.033 | 0.0685 | -0.0219 | -0.0376 | 0.0273 | -0.0134 | -0.0513 | 0.0209 | -0.0423 | 0.0095 | 0.131 | 0.0224 | 0.0467 | -0.0275 | -0.0251 | -0.053 | 0.0171 | -0.0592 | -0.0172 | -0.0767 | 0.567 | 0.785 | 0.991 | 0.573 | 0.377 | 0.823 | 0.598 | 1 | 0.141 | 0.939 | 0.774 | 0.435 | 0.597 | 1 | 0.505 | 0.366 | 0.692 | 0.367 | 0.351 | 0.253
3 | CS(=O)(=O)CCNCc1ccc(-c2ccc3ncnc(Nc4ccc(OCc5cccc(F)c5)c(Cl)c4)c3c2)o1 [Lapatinib] + Cn1cnc2c(F)c(Nc3ccc(Br)cc3Cl)c(C(=O)NOCCO)cc21 [Selumetinib] (first compound max 10 µM, 7x7, partner max 10 µM) | -0.0589 | -0.0114 | -0.0822 | -0.0658 | -0.0414 | -0.004 | 0.0326 | 0.0148 | -0.0319 | 0.0352 | 0.0378 | -0.0173 | -0.0554 | 0.0001 | -0.0289 | 0.0604 | 0.0206 | -0.0833 | -0.0116 | -0.0411 | 0.579 | 0.475 | 0.637 | 0.349 | 0.697 | 0.572 | 0.749 | 0.407 | 0.214 | 0.912 | 0.584 | 0.539 | 0.121 | 0.652 | 0.729 | 0.805 | 0.989 | 0.586 | 0.126 | 0.281
4 | C[C@@H]1COCCN1c1cc(C2([S@](C)(=N)=O)CC2)nc(-c2ccnc3[nH]ccc23)n1 [AZD6738] + Nc1ccn([C@@H]2O[C@H](CO)[C@@H](O)C2(F)F)c(=O)n1 [Gemcitabine] (first compound max 10 µM, 7x7, partner max 0.3 µM) | 0.0762 | 0.0858 | 0.0987 | -0.0731 | 0.007 | 0.124 | 0.0963 | 0.0132 | -0.0006 | 0.0674 | 0.0579 | 0.0444 | 0.0805 | -0.0345 | -0.0129 | -0.0067 | 0.0058 | -0.0514 | 0.114 | 0.0693 | 0.808 | 0.902 | 1 | 0.733 | 0.847 | 0.949 | 0.844 | 1 | 0.504 | 0.976 | 1 | 0.812 | 0.794 | 1 | 0.573 | 0.579 | 0.869 | 0.48 | 0.572 | 0.559
5 | O=C(c1cc(Cc2n[nH]c(=O)c3ccccc23)ccc1F)N1CCN(C(=O)C2CC2)CC1 [Olaparib] + CN(CC[C@H](CSC1=CC=CC=C1)NC2=C(C=C(C=C2)S(=O)(=O)NC(=O)C3=CC=C(C=C3)N4CCC(CC4)[C@H](C5=CC=CC=C5C6=CC=C(C=C6)Cl)O)S(=O)(=O)C(F)(F)F)CCO [AZD4320] (first compound max 10 µM, 7x7, partner max 1 µM) | 0.0148 | -0.0175 | 0.0456 | -0.0372 | -0.0394 | -0.0338 | -0.0367 | -0.0543 | -0.0377 | -0.0603 | -0.0261 | -0.0387 | -0.0701 | 0.0827 | -0.0165 | -0.0488 | -0.0113 | -0.0382 | 0.0047 | -0.0717 | 0.164 | 0.2 | 0.999 | 0.213 | 0.158 | 0.39 | 0.173 | 0.576 | 0.151 | 0.617 | 1 | 0.159 | 0.659 | 1 | 0.546 | 0.198 | 0.199 | 0.534 | 1 | 0.228
6 | CN(CCO)CC[C@H](CSc1ccccc1)Nc1ccc(S(=O)(=O)NC(=O)c2ccc(N3CCC([C@@H](O)c4ccccc4-c4ccc(Cl)cc4)CC3)cc2)cc1S(=O)(=O)C(F)(F)F [AZD4320] + CC(=O)O[C@H]1C(=O)[C@@]2(C)[C@H]([C@H](OC(=O)c3ccccc3)[C@]3(O)C[C@H](OC(=O)[C@H](O)[C@@H](NC(=O)c4ccccc4)c4ccccc4)C(C)=C1C3(C)C)[C@]1(OC(C)=O)CO[C@@H]1C[C@@H]2O [Paclitaxel] (first compound max 1 µM, 7x7, partner max 3 µM) | 0.0744 | 0.0578 | -0.0236 | 0.0345 | -0.0733 | 0.0005 | -0.0294 | 0.017 | 0.0722 | 0.0001 | 0.0229 | 0.0211 | 0.237 | 0.0078 | 0.0935 | 0.0109 | 0.0125 | 0.133 | 0.0531 | 0.164 | 1 | 1 | 1 | 0.663 | 0.754 | 0.98 | 0.876 | 1 | 0.597 | 1 | 1 | 0.9 | 0.992 | 1 | 0.932 | 0.597 | 0.996 | 0.94 | 1 | 0.952
